Several values for one entry are separate records, joined by “and”; a condition that tells them apart may be missing. Equal values may be shown once.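 How tested: cells in 96-well plates exposed to compound for 48 hours at five concentrations. At the TGI there is no net growth.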
Key:
Test in all cases: NCI tumour cell line growth inhibition, 48 h
KM20L2 colon = test system: KM20L2 colon
SN12K1 renal = test system: SN12K1 renal
P388 leukemia = test system: P388 leukemia
P388/ADR leukemia = test system: P388/ADR leukemia
RXF-631 renal = test system: RXF-631 renal

SMILES	TGI (KM20L2 colon)	TGI (SN12K1 renal)	TGI (P388 leukemia)	TGI (P388/ADR leukemia)	TGI (RXF-631 renal)
CCCCc1c2c(nc3c1CCCC3O)/C(=C/c1ccccc1)CCC2 (configuration not stated)	75.1 µM	–	–	–	–
O=C1C(CN2CCCCC2)CCCC1CN1CCCCC1 (configuration not stated)	17.8 µM and 22.8 µM	–	–	–	–
CCOC(=O)c1c(C)c2c(n1C)CCc1cn[nH]c1-2	> 100 µM	> 100 µM	> 100 µM	> 31.6 µM	–
COc1ccc(C2C3C(=O)C=CC(=O)C3[C@@H]2C)cc1OC (some centres not stated)	> 100 µM	–	–	–	> 100 µM
CC1=C2C(=O)[C@H]3[C@@H](CC=C4C[C@@H](O)CC[C@@]43C)[C@@H]2CC[C@]12O[C@@H]1C[C@H](C)CN[C@H]1[C@H]2C	93.2 µM	–	–	–	50 µM
CCCC/C=C/C1Cc2ccccc2CN1S(=O)(=O)c1ccc(C)cc1 (configuration not stated)	26.2 µM	–	–	–	20.9 µM
CC(=O)O/N=C/c1ncccc1OC(C)=O	> 100 µM	–	–	–	> 100 µM
CCCn1c(SCC)c2ccccc2c1-c1nc(F)nc(F)n1	> 100 µM	–	–	–	> 100 µM
COC(=O)C1=C(C(=O)OC)C2(OC(C)=O)c3ccccc3-c3ccccc3C12 (configuration not stated)	12.8 µM	–	–	–	–

From PubChem BioAssay (NCI)
